# Assays:
# Experiment in all cases: 33PanQinase panel
# Assay type in all cases: biochemical
# [1] = target: T1, TYK2 (Homo sapiens, UniProt P29597); settings: TYK2, 1 µM; read-out: Residual Activity (%)
# T1 construct: purchased ProQinase
# In short: (§1)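 Measured value: residual activity (%) vs DMSO. Conditions: 1 µM compound, 1% DMSO, radiometric 33PanQinase format, 320 wild-type kinase panel.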
# [2] = target: T2, CDK2/CycA2 (Homo sapiens, UniProt P24941); settings: CDK2/CycA2, 1 µM; read-out: Residual Activity (%)
# T2 construct: purchased ProQinase
# In short: as §1
# [3] = target: T3, RPS6KA6 (Homo sapiens, UniProt Q9UK32); settings: RPS6KA6, 1 µM; read-out: Residual Activity (%)
# T3 construct: purchased ProQinase
# In short: as §1
# [4] = target: T4, CDK16/CycY (Homo sapiens, UniProt Q00536); settings: read-out: Residual Activity (%)
# T4 construct: purchased ProQinase
# T4 sequence (Q00536 whole entry): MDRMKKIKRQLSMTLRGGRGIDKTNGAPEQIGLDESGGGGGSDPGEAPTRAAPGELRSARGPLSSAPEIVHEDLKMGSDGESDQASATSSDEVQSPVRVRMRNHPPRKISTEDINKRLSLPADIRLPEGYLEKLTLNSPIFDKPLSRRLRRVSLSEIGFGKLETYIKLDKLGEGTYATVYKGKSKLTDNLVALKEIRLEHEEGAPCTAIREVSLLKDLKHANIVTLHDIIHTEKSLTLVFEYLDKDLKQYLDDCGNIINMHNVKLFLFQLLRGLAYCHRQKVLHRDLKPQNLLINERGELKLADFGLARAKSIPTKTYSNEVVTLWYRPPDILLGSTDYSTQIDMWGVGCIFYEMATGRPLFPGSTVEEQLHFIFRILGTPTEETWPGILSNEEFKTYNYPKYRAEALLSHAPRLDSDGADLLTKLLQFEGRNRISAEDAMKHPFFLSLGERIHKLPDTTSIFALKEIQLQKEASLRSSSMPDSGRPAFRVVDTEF
# T4 sequence (Q8ND76 whole entry partner): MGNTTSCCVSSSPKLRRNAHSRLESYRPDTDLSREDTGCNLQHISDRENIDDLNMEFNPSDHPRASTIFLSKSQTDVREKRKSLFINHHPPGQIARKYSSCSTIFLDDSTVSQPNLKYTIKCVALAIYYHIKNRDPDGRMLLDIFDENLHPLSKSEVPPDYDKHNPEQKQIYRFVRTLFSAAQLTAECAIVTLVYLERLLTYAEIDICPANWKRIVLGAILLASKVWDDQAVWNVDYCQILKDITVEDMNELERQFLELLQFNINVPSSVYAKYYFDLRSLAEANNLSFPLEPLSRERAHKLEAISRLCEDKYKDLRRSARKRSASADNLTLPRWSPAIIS
# In short: as §1
# [5] = target: T5, RPS6KA4 (Homo sapiens, UniProt O75676); settings: RPS6KA4, 1 µM; read-out: Residual Activity (%)
# T5 construct: purchased ProQinase
# In short: as §1
# [6] = target: T6, WNK1 (Homo sapiens, UniProt Q9H4A3); settings: WNK1, 1 µM; read-out: Residual Activity (%)
# T6 construct: purchased ProQinase
# In short: as §1
# [7] = target: T7, TGFB-R2 (Homo sapiens, UniProt P37173); settings: TGFB-R2, 1 µM; read-out: Residual Activity (%)
# T7 construct: purchased ProQinase
# In short: as §1
# [8] = target: T8, MST4 (Homo sapiens, UniProt Q9P289); settings: MST4, 1 µM; read-out: Residual Activity (%)
# T8 construct: purchased ProQinase
# T8 sequence (Q9P289 whole entry): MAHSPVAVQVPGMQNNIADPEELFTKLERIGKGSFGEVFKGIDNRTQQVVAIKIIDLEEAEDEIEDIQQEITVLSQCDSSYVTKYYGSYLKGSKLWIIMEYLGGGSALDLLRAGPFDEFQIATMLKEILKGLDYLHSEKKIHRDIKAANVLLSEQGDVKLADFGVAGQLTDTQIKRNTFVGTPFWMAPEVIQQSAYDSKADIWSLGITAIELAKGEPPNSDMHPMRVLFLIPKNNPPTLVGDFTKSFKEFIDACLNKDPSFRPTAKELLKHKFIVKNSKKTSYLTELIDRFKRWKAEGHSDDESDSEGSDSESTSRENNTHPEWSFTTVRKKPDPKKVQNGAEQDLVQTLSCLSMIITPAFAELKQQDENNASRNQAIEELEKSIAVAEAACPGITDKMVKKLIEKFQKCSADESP
# In short: as §1
# [9] = target: T9, TNK1 (Homo sapiens, UniProt Q13470); settings: TNK1, 1 µM; read-out: Residual Activity (%)
# T9 construct: purchased ProQinase
# T9 sequence (Q13470 whole entry): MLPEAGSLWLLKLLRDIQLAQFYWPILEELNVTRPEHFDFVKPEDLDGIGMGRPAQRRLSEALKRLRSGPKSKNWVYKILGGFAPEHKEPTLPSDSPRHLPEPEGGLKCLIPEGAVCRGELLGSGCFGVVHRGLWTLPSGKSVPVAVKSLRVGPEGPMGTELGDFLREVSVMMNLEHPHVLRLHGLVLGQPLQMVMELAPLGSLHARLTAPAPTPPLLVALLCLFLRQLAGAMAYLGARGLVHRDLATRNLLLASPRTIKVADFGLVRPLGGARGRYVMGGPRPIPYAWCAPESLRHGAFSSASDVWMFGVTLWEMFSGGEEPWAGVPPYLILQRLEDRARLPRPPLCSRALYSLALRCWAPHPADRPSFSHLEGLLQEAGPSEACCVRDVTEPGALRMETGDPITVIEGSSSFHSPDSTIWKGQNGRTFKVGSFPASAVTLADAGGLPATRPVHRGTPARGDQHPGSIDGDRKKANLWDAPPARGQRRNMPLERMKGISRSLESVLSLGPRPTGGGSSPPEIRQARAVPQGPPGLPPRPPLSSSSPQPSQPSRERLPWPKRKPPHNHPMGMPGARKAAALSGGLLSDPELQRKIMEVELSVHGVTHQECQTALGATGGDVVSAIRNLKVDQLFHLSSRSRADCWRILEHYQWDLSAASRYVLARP
# In short: as §1
# [10] = target: T10, CAMK2A (Homo sapiens, UniProt Q9UQM7); settings: read-out: Residual Activity (%)
# T10 construct: purchased ProQinase
# T10 sequence (Q9UQM7 whole entry): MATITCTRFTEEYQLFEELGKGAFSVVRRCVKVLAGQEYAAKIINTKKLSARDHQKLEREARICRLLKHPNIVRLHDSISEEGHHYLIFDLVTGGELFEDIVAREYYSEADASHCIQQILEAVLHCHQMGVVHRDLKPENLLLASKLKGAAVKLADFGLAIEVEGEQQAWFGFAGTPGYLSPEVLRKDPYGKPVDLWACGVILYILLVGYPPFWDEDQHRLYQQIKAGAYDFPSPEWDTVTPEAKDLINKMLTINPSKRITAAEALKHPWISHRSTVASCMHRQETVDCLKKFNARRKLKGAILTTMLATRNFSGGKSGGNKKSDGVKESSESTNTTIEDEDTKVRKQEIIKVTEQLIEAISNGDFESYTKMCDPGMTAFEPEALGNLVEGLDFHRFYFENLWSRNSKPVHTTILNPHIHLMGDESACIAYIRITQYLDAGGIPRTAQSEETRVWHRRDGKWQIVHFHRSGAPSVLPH
# In short: as §1
# [11] = target: T11, PASK (Homo sapiens, UniProt Q96RG2); settings: read-out: Residual Activity (%)
# T11 construct: purchased ProQinase
# T11 sequence (Q96RG2 whole entry): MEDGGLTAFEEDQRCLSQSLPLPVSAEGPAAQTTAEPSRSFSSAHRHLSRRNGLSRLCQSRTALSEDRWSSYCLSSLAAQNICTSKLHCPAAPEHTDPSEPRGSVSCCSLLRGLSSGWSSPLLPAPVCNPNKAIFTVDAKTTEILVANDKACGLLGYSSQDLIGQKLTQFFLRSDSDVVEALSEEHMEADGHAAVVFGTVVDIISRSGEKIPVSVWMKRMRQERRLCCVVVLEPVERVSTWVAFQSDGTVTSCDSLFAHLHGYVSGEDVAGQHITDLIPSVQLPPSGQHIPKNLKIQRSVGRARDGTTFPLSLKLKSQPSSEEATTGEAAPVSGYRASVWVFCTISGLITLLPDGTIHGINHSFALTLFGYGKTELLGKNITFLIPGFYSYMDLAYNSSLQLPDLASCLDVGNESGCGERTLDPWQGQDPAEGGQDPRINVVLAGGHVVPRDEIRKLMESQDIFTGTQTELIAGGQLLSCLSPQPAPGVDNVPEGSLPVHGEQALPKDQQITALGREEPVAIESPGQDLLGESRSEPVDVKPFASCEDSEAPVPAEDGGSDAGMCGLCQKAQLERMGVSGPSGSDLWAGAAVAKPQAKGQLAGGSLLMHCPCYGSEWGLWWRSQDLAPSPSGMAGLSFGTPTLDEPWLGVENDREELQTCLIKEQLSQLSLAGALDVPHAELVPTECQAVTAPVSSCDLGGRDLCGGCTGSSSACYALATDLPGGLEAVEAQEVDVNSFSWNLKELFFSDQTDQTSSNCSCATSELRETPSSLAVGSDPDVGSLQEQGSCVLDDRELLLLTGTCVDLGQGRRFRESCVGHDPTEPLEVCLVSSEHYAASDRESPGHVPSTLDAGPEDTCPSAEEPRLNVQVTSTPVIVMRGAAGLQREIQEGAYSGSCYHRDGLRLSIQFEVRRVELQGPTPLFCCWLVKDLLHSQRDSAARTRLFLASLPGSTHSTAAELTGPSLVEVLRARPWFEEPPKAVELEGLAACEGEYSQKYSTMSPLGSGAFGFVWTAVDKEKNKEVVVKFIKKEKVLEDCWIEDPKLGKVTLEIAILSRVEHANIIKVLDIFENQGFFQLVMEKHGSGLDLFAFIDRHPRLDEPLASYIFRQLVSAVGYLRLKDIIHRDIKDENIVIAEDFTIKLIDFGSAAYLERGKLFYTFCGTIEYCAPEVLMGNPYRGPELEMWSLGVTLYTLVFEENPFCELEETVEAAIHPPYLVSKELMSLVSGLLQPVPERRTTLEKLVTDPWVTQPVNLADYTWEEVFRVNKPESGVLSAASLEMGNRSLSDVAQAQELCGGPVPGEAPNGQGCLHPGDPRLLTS
# In short: as §1
# [12] = target: T12, CHK2 (Homo sapiens, UniProt O96017); settings: CHK2, 1 µM; read-out: Residual Activity (%)
# T12 construct: purchased ProQinase
# In short: as §1
# [13] = target: T13, EPHB2 (Homo sapiens, UniProt P29323); settings: EPHB2, 1 µM; read-out: Residual Activity (%)
# T13 construct: purchased ProQinase
# In short: as §1
# [14] = target: T14, NEK3 (Homo sapiens, UniProt P51956); settings: NEK3, 1 µM; read-out: Residual Activity (%)
# T14 construct: purchased ProQinase
# In short: as §1
# [15] = target: T15, ROCK1 (Homo sapiens, UniProt Q13464); settings: ROCK1, 1 µM; read-out: Residual Activity (%)
# T15 construct: purchased ProQinase
# T15 sequence (Q13464 whole entry): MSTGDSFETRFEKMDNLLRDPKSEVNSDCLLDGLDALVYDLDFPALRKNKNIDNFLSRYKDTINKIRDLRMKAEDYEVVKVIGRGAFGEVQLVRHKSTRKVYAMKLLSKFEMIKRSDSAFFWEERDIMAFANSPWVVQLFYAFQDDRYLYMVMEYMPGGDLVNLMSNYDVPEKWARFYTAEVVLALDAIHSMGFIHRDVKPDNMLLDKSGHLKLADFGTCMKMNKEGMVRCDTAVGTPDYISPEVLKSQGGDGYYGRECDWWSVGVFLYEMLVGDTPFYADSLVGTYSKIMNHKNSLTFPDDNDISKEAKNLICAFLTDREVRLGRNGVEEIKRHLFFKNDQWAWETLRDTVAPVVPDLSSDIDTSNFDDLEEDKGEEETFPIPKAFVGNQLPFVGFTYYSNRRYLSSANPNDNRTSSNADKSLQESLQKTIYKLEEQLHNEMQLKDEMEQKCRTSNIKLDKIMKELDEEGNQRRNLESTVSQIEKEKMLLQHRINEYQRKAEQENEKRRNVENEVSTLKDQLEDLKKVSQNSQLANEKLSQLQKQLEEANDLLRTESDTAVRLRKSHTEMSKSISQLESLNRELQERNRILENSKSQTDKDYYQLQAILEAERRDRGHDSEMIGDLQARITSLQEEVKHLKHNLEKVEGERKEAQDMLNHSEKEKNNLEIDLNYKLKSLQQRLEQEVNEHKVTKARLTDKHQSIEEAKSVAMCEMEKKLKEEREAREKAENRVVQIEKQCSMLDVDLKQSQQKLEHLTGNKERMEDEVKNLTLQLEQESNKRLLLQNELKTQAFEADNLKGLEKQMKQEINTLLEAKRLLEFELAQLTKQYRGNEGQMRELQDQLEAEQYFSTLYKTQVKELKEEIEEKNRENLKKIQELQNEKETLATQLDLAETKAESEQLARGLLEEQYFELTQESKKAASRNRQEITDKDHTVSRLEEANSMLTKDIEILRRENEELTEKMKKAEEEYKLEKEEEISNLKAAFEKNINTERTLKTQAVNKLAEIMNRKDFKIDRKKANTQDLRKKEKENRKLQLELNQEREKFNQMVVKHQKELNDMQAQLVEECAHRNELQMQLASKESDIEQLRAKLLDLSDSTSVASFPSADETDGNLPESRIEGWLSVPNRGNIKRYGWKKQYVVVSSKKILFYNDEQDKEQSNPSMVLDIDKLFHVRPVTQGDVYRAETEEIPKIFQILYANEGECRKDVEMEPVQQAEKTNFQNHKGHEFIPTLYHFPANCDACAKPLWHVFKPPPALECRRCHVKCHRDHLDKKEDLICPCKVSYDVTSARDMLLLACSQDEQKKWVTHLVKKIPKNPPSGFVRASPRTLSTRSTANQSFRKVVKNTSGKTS
# In short: as §1
compound,measurement,setting,value
COc1ccc(-c2cc(C(=O)Nc3cc(-c4c(-c5ccc(F)cc5)noc4C(C)C)ccn3)n(CC3NCC(O)C3O)c2)cc1 (stereo not drawn) [29d],remaining activity at 1 µM,[1],85%
same,remaining activity at 1 µM,[2],102%
same,remaining activity at 1 µM,[3],89%
same,remaining activity at 1 µM,[4],112%
same,remaining activity at 1 µM,[5],105%
same,remaining activity at 1 µM,[6],90%
same,remaining activity at 1 µM,[7],69%
same,remaining activity at 1 µM,[8],108%
same,remaining activity at 1 µM,[9],104%
same,remaining activity at 1 µM,[10],87%
same,remaining activity at 1 µM,[11],99%
same,remaining activity at 1 µM,[12],97%
same,remaining activity at 1 µM,[13],88%
same,remaining activity at 1 µM,[14],96%
same,remaining activity at 1 µM,[15],92%
